In one test the target is T1, human CD73 (Homo sapiens, UniProt P21589).
T1 construct: expressed in transfected cells
T1 sequence (P21589 27-549): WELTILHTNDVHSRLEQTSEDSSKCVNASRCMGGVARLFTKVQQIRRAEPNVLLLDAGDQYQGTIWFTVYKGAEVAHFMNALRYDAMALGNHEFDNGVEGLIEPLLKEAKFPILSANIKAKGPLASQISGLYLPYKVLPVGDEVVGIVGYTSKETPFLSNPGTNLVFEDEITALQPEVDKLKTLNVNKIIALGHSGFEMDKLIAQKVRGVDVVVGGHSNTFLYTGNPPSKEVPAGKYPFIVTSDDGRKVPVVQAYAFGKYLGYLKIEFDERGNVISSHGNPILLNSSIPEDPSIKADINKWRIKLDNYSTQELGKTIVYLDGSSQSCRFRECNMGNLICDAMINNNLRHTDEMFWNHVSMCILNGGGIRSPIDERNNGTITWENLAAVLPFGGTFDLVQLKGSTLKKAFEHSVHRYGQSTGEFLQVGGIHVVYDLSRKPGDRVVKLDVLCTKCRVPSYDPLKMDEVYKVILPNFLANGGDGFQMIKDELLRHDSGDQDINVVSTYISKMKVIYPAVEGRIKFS
Description: Inhibitor activity against CD73 in cell based assay (CD73 expressing CHO-K1 cells). The conditions noted are these: CHO-K1 cells expressing human CD73, 150 μM AMP, 4 hours of incubation; read-out: CHO-K1 CELL_VARIANT: CD73 IC50. A digest of the protocol: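 AMP (150 μM) was added alongside 8 titrated compound doses (maximum 10 μM, 1:3 steps) to CHO-K1 cells stably expressing human CD73. After 4 h, supernatant AMP was measured indirectly with CellTiter-Glo 2.0 plus 1 μM ATP (30 min, RT). % inhibition versus high and low controls was fitted nonlinearly for IC50.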

The target of test [1] is T2, Human CD73 (amino acid residues 27-549) (Homo sapiens, UniProt P21589).
T2 construct: Human CD73 (amino acid residues 27-549); His tag (N); made in house; host or cells: E. coli
T2 sequence (P21589 27-549): T1 sequence (P21589 27-549)
The test can be described thus: CD73 enzymatic assay (luciferase-based indirect assay, CellTiter-Glo). The class given is biochemical. The conditions noted are these: 0.4 nM CD73, 150 μM AMP, 1 hour at room temperature. A digest of the protocol:
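Luciferase-coupled readout: AMP left after CD73 turnover suppresses CellTiter-Glo signal (1 μM ATP final, 30 min RT). Reaction beforehand: 150 μM AMP, 0.4 nM E. coli-made His-tagged CD73 residues 27-549, test compound, HEPES pH 7.4 with Tween-20, 1 h RT. % inhibition fitted nonlinearly for IC50.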

Take `O=c1[nH]ncc(N2CC[C@@H](Oc3cc(-c4ccc(C(F)(F)F)cc4Cl)ccn3)C2)c1Cl` [P-0232, (R)-4-chloro-5-(3-((4-(2-chloro-4-(trifluoromethyl)phenyl)pyridin-2-yl)oxy)pyrrolidin-1-yl)pyridazin-3(2H)-one]: the IC50 (on human CD73; in test [1]) was 0.001 to 10 µM throughout.
Turning to `CCCNS(=O)(=O)c1ccc(-c2ccnc(O[C@@H]3CCN(c4cn[nH]c(=O)c4Cl)C3)c2)c(Cl)c1` [P-0233, (R)-3-chloro-4-(2-((1-(5-chloro-6-oxo-1,6-dihydropyridazin-4-yl)pyrrolidin-3-yl)oxy)pyridin-4-yl)-N-propylbenzenesulfonamide], the IC50 (on human CD73; in test [1]) was 0.001 to 10 µM in each case.
Consider `O=c1[nH]ncc(N2CC[C@@H](Oc3cc(-c4ccc(S(=O)(=O)NC5CC5)cc4F)ccn3)C2)c1Cl` [P-0234, (R)-4-(2-((1-(5-chloro-6-oxo-1,6-dihydropyridazin-4-yl)pyrrolidin-3-yl)oxy)pyridin-4-yl)-N-cyclopropyl-3-fluorobenzenesulfonamide], for which the IC50 (at human CD73; in test [1]) was 0.001 to 10 µM in each case.
Turning to `Cc1cc(S(=O)(=O)NC2CC2)ccc1-c1ccnc(O[C@@H]2CCN(c3cn[nH]c(=O)c3Cl)C2)c1` [P-0235, (R)-4-(2-((1-(5-chloro-6-oxo-1,6-dihydropyridazin-4-yl)pyrrolidin-3-yl)oxy)pyridin-4-yl)-N-cyclopropyl-3-methylbenzenesulfonamide], the IC50 (on human CD73; in test [1]) was 0.001 to 10 µM in each case.
Regarding `O=c1[nH]ncc(N2CC[C@@H](Oc3cc(-c4ccc(C(F)(F)F)cc4)ccn3)C2)c1Cl` [P-0236, (R)-4-chloro-5-(3-((4-(4-(trifluoromethyl)phenyl)pyridin-2-yl)oxy)pyrrolidin-1-yl)pyridazin-3(2H)-one], the IC50 (on human CD73; in test [1]) was 0.001 to 10 µM throughout.
With `O=c1[nH]ncc(N2CC[C@@H](Oc3cc(-c4ccc(OC(F)(F)F)cc4)ccn3)C2)c1Cl` [P-0237, (R)-4-chloro-5-(3-((4-(4-(trifluoromethoxy)phenyl)pyridin-2-yl)oxy)pyrrolidin-1-yl)pyridazin-3(2H)-one], the 50% inhibitory concentration (IC50) (on human CD73; in test [1]) was 0.001 to 10 µM in each case.
With `O=c1[nH]ncc(N2CC[C@@H](Oc3cc(-c4ccc(S(=O)(=O)NC5CC5)cc4)c(F)cn3)C2)c1Cl` [P-0238, (R)-4-(2-((1-(5-chloro-6-oxo-1,6-dihydropyridazin-4-yl)pyrrolidin-3-yl)oxy)-5-fluoropyridin-4-yl)-N-cyclopropylbenzenesulfonamide], the IC50 (on human CD73; in test [1]) was 0.001 to 10 µM in each case.
For `CCCS(=O)(=O)N1CCN(c2ccnc(O[C@@H]3CCN(c4cn[nH]c(=O)c4Cl)C3)c2)CC1` [P-0239, (R)-4-chloro-5-(3-((4-(4-(propylsulfonyl)piperazin-1-yl)pyridin-2-yl)oxy)pyrrolidin-1-yl)pyridazin-3(2H)-one], the IC50 (at human CD73; in test [1]) was 0.001 to 10 µM each time.
On to `CCCNS(=O)(=O)c1ccc(-c2ccnc(O[C@@H]3CCN(c4cn[nH]c(=O)c4Cl)C3)c2)c(C)c1` [P-0240, (R)-4-(2-((1-(5-chloro-6-oxo-1,6-dihydropyridazin-4-yl)pyrrolidin-3-yl)oxy)pyridin-4-yl)-3-methyl-N-propylbenzenesulfonamide], for which the IC50 (on human CD73; in test [1]) was 0.001 to 10 µM in each case.
With `O=c1[nH]ncc(N2CC[C@@H](Oc3cc(-c4ccc(S(=O)(=O)Nc5ccc(F)cc5)cc4)ccn3)C2)c1Cl` [P-0241, (R)-4-(2-((1-(5-chloro-6-oxo-1,6-dihydropyridazin-4-yl)pyrrolidin-3-yl)oxy)pyridin-4-yl)-N-(4-fluorophenyl)benzenesulfon-amide], the IC50 (at human CD73; in test [1]) was 0.001 to 10 µM in each case.
With `CCCCNS(=O)(=O)c1ccc(-c2ccnc(O[C@@H]3CCN(c4cn[nH]c(=O)c4Cl)C3)c2)cc1` [P-0242, (R)-N-butyl-4-(2-((1-(5-chloro-6-oxo-1,6-dihydropyridazin-4-yl)pyrrolidin-3-yl)oxy)pyridin-4-yl)benzenesulfonamide], the IC50 (on human CD73; in test [1]) was 0.001 to 10 µM each time.
Regarding `CCNS(=O)(=O)c1ccc(-c2ccnc(O[C@@H]3CCN(c4cn[nH]c(=O)c4Cl)C3)c2)cc1` [P-0243, (R)-4-(2-((1-(5-chloro-6-oxo-1,6-dihydropyridazin-4-yl)pyrrolidin-3-yl)oxy)pyridin-4-yl)-N-ethylbenzenesulfonamide], the IC50 (on human CD73; in test [1]) was 0.001 to 10 µM in each case.
As to `CNS(=O)(=O)c1ccc(-c2ccnc(O[C@@H]3CCN(c4cn[nH]c(=O)c4Cl)C3)c2)cc1` [P-0244, (R)-4-(2-((1-(5-chloro-6-oxo-1,6-dihydropyridazin-4-yl)pyrrolidin-3-yl)oxy)pyridin-4-yl)-N-methylbenzenesulfonamide], the IC50 (on human CD73; in test [1]) was 0.001 to 10 µM each time.
For `O=c1[nH]ncc(N2CC[C@@H](Oc3cc(-c4ccc(NS(=O)(=O)C5CC5)cc4)ccn3)C2)c1Cl` [P-0245, (R)-N-(4-(2-((1-(5-chloro-6-oxo-1,6-dihydropyridazin-4-yl)pyrrolidin-3-yl)oxy)pyridin-4-yl)phenyl)cyclopropanesulfon-amide], the IC50 (on human CD73; in test [1]) was 0.001 to 10 µM in each case.
On to `O=c1[nH]ncc(N2CC[C@@H](Oc3cc(-c4ccc(S(=O)(=O)N5CCCC5)cc4)ccn3)C2)c1Cl` [P-0246, (R)-4-chloro-5-(3-((4-(4-(pyrrolidin-1-ylsulfonyl)phenyl)pyridin-2-yl)oxy)pyrrolidin-1-yl)pyridazin-3(2H)-one], for which the IC50 (on human CD73; in test [1]) was 0.001 to 10 µM each time.
Consider `O=c1[nH]ncc(N2CC[C@@H](Oc3cc(-c4ccc(S(=O)(=O)NC5CC5)cc4)ccn3)C2)c1Cl` [P-0247, (R)-4-(2-((1-(5-chloro-6-oxo-1,6-dihydropyridazin-4-yl)pyrrolidin-3-yl)oxy)pyridin-4-yl)-N-cyclopropylbenzenesulfonamide], for which the IC50 (on human CD73; in test [1]) was 0.001 to 10 µM throughout.
On to `O=c1[nH]ncc(N2CC[C@@H](Oc3cc(-c4ccc(S(=O)(=O)N5CCCC5)cc4)c(Cl)cn3)C2)c1Cl` [P-0248, (R)-4-chloro-5-(3-((5-chloro-4-(4-(pyrrolidin-1-ylsulfonyl)phenyl)pyridin-2-yl)oxy)pyrrolidin-1-yl)pyridazin-3(2H)-one], for which the IC50 (on human CD73; in test [1]) was 0.001 to 10 µM throughout.
On to `O=c1[nH]ncc(N2CC[C@@H](Oc3cc(-c4ccc(S(=O)(=O)N5CCCCC5)cc4)c(Cl)cn3)C2)c1Cl` [P-0249, (R)-4-chloro-5-(3-((5-chloro-4-(4-(piperidin-1-ylsulfonyl)phenyl)pyridin-2-yl)oxy)pyrrolidin-1-yl)pyridazin-3(2H)-one], for which the IC50 (on human CD73; in test [1]) was 0.001 to 10 µM throughout.
For `O=c1[nH]ncc(N2CC[C@@H](Oc3cc(-c4ccc(S(=O)(=O)NC5CC5)cc4)c(Cl)cn3)C2)c1Cl` [P-0251, (R)-4-(5-chloro-2-((1-(5-chloro-6-oxo-1,6-dihydropyridazin-4-yl)pyrrolidin-3-yl)oxy)pyridin-4-yl)-N-cyclopropylbenzenesulfonamide], the IC50 (at human CD73; in test [1]) was 0.001 to 10 µM each time.
On to `O=c1[nH]ncc(N2CC[C@@H](Oc3cc(-n4cccc4)ccn3)C2)c1Cl` [P-0252, (R)-5-(3-((4-(1H-pyrrol-1-yl)pyridin-2-yl)oxy)pyrrolidin-1-yl)-4-chloropyridazin-3(2H)-one], for which the IC50 (on human CD73; in test [1]) was 0.001 to 10 µM throughout.
For `N#Cc1cc(O[C@@H]2CCN(c3cn[nH]c(=O)c3Cl)C2)nc(N2CCCC2)c1` [P-0253, (R)-2-((1-(5-chloro-6-oxo-1,6-dihydropyridazin-4-yl)pyrrolidin-3-yl)oxy)-6-(pyrrolidin-1-yl)isonicotinonitrile], the IC50 on human CD73 was 10 to 100 µM; in test [1], 0.001 to 10 µM.
